According to patent US4672058A, “N[[5-(trifluoromethyl)-6-methoxy-1-naphthalenyl]-thioxomethyl]-N -methylglycinamides” (American Home Products Corporation, priority 1985, dated 1987):

Columns and labels:
[1] = test system: aldose reductase; conditions: literature, in words; cited from earlier work
[2] = test system: accumulation of dulcitol; assay: Lowering of dulcitol accumulation in lens, sciatic nerve and diaphragm of galactosemic rats (in vivo); parameters: species or system rat (Sprague-Dawley, male); conditions: for % lowering dulcitol accumulation in vivo, D: diaphragm
From the text: Such experiments are exemplified hereinbelow after the listing of the following general comments pertaining to these experiments:
(a) Four or more groups of six male rats, 50-70 g, Sprague-Dawley strain, were used. The first group, the control group, was fed a mixture of laboratory chow (rodent Laboratory Chow, Purina) and glucose at 20% (w/w %) concentration. The untreated galactosemic group was fed a similar diet in which galactose is substituted for glucose. The third group was fed a diet prepared by mixing a given amount of the test compound with the galactose containing diet. The concentration of galactose in the diet of the treated groups was the same as that for the untreated galactosemic group.
(b) After four days, the animals were killed by decapitation. The eyeballs were removed and punctured with a razor blade; the freed lenses were rolled gently on filter paper and weighed. The sciatic nerves were dissected as completely as possible and weighed. Both tissues when frozen can be kept up to two weeks before being analyzed for dulcitol.
(c) The polyol determination was performed by a modification of the procedure of M. Kraml and L. Cosyns, Clin. Biochem., 2,373 (1969). Only two minor reagent changes were made: (a) The rinsing mixture was an aqueous 5% (w/v) trichloroacetic acid solution and (b) the stock solution was prepared by dissolving 25 mg of dulcitol in 100 ml of an aqueous trichloroacetic acid solution. [N.B.: For each experiment the average value found in the tissue from rats fed the glucose diet was subtracted from the individual values found in the corresponding tissue in galactose-fed rats to obtain the amount of polyol accumulated.] […] In the present case the procedure of Hayman and Kinoshita was modified in that the final chromatography step was omitted in the preparation of the enzyme from bovine lens.
The figures under L, N and D represent the percentage decrease of dulcitol accumulation in the tissues of the lens, sciatic nerve and diaphragm, respectively, for treated rats as compared to untreated rats.

O=C(O)CN1C(=O)c2cccc3cccc(c23)C1=O [1,3-Dioxo-1H-benz[de]isoquinoline-2(3H)-acetic acid]
inhibition of aldose reductase, as reported [1]: effective inhibitor of aldose reductase

COc1ccc2c(C(=S)N(C)CC(N)=O)cccc2c1C(F)(F)F [Compound 1, N-[[5-(trifluoromethyl)-6-methoxy-1-naphthalenyl]-thioxomethyl]-N-methylglycinamide]
% lowering dulcitol accumulation in vivo, D ([2]; 5 mg/kg/day in diet, 4 days): 66% | results compared with N-[[5-(trifluoromethyl)-6-methoxy-1-naphthalenyl]-thioxomethyl]-N-methylglycine (tolrestat) ([2]; dose of 5 mg/kg/day, in words): comparable results

COc1ccc2c(C(=S)N(C)CC(=O)N(C)C)cccc2c1C(F)(F)F [Compound 3, 2-[[[6-Methoxy-5-(trifluoromethyl)-1-naphthalenyl]thioxomethyl]methylamino]-N,N-dimethylacetamide]
% lowering dulcitol accumulation in vivo, D ([2]; 55 mg/kg/day in diet, 4 days): 85%

COC(=N)NC(=O)CN(C)C(=S)c1cccc2c(C(F)(F)F)c(OC)ccc12 [Compound 4, N-[[[[5-(Trifluoromethyl)-6-methoxy-1-naphthalenyl]thioxomethyl]methylamino]acetyl]carbamimidic Acid, Methyl Ester]
% lowering dulcitol accumulation in vivo, D ([2]; 26 mg/kg/day in diet, 4 days): 76% | % lowering dulcitol accumulation in vivo, L ([2]; lens, 26 mg/kg/day in diet, 4 days): 13%

COc1ccc2c(C(=S)N(C)CC(=O)NC(N)=O)cccc2c1C(F)(F)F [Compound 5, [[[5-(Trifluoromethyl)-6-methoxy-1-naphthalenyl]thioxomethyl](methylamino)acetyl]urea]
% lowering dulcitol accumulation in vivo, D ([2]; 23 mg/kg/day in diet, 4 days): 64%

COC(=O)NC(=O)CN(C)C(=S)c1cccc2c(C(F)(F)F)c(OC)ccc12 [Compound 6, [[[5-(Trifluoromethyl)-6-methoxy-1-naphthalenyl]thioxomethyl](methylamino)acetyl]carbamic acid, Methyl Ester]
% lowering dulcitol accumulation in vivo, D ([2]; 8.4 mg/kg/day in diet, 4 days): 69% | % lowering dulcitol accumulation in vivo, D ([2]; 26 mg/kg/day in diet, 4 days): 88%

COc1ccc2c(C(=S)N(C)CC(=O)N[C@H]3C(O)O[C@H](CO)[C@@H](O)[C@@H]3O)cccc2c1C(F)(F)F (stereo partly drawn) [Compound 7, 2-Deoxy-2-[[[[[6-methoxy-5-(trifluoromethyl)-1-naphthalenyl]thioxomethyl]methylamino]acetyl]amino]-D-glucose]
% lowering dulcitol accumulation in vivo, D ([2]; 161 mg/kg/day in diet, 4 days): 37%

O=C1NC(=O)[C@@]2(CCOc3ccc(F)cc32)N1 [sorbinil, (S)-6-Fluoro-2,3-dihydrospiro(4H-1-benzopyran-4,4'-imidazolidine)-2',5'-dione]
inhibition of aldose reductase, as reported [1]: aldose reductase inhibiting properties
